Results from US7368424B2, “Acylated nonadepsipeptides” (AiCuris GmbH & Co. KG, priority 2003, dated 2008).
Converted amounts (≈) assume the structure as drawn. Read-outs that look alike come from different tables or passages of the source. *1 amine or outer side, *2 acyl side, *3 side chain or, on linkers, in order; H or OH if unused. Where a SMILES comes first, the peptide text is derived from it. Bridges are numbered along the chain shown (N, C = ends). [ ]: non-standard residue; d: D form. The star is where a group is joined. ξ: configuration not given here. Phe(3R-OH) = O=C([C@@H](N[*:1])[C@H](O[*:3])c1ccccc1)[*:2]; Asn(3S-OH) = NC(=O)[C@@H](O)[C@H](N)C(=O)O; Leu(3R-OH) = CC(C)[C@@H](O)[C@H](N)C(=O)O; dAla(TMS) = C[Si](C)(C)C[C@@H](N)C(=O)O; d(tBuAla) = CC(C)(C)C[C@@H](N)C(=O)O; dPhe(2-F) = N[C@H](Cc1ccccc1F)C(=O)O; Ala(cPr) = N[C@@H](CC1CC1)C(=O)O; tBuAla = CC(C)(C)C[C@H](N)C(=O)O; 2Pal = N[C@@H](Cc1ccccn1)C(=O)O; aThr = C[C@H](O)[C@H](N)C(=O)O; Aic = NC1(C(=O)O)Cc2ccccc2C1; ξIle = CC[C@H](C)C(N)C(=O)O; Ac6c = NC1(C(=O)O)CCCCC1; Bn = c1ccc(C*)cc1; tBu = CC(C)(C)*

Legend:
[1] = tested on: E. faecium L4001; type: cell-based, Enterococcus faecium
[2] = tested on: E. faecalis ICB 27159; type: cell-based, Enterococcus faecalis
Description: (§1) Determination of the Minimum Inhibitory Concentration (MIC):
(§2) The MIC is determined in the liquid dilution test in accordance with the NCCLS guidelines. Overnight cultures of Staphylococcus aureus 133, Enterococcus faecalis 27159, E. faecium 4147 and Streptococcus pneumoniae G9a are incubated with the desired test substances in a 1:2 dilution series. The MIC determination is carried out with a cell count of 10^5 microbes per ml in Isosensitest medium (Difco, Irvine/USA), with the exception of S. pneumoniae which is tested in BHI broth (Difco, Irvine/USA) with 10% bovine serum with a cell count of 10^6 microbes per ml. The cultures are incubated at 37° C. for 18-24 hours, S. pneumoniae in the presence of 10% CO2.
(§3) The MIC is defined as the lowest concentration of each substance at which visible bacterial growth no longer occurs. The MIC values are reported in μg/ml.

[3] = tested on: Staphylococcus aureus 133; type: cell-based
Description: as §1, §2, §3

[4] = tested on: Streptococcus pneumoniae G9a; type: cell-based
Description: as §1, §2, §3

[5] = BHI broth with 10% bovine serum, 10^6 microbes per ml, 10% CO2, 37° C., 18-24 hours
[6] = Isosensitest medium, 10^5 microbes per ml, 37° C., 18-24 hours

Compound	MIC E. faecium L4001 ([1]; L4001)	MIC E. faecalis ICB 27159 ([2]; ICB 27159)	MIC S. aureus 133 [3]; 133	MIC S. pneumoniae [4, 5]	MIC S. pneumoniae ([4]; G9a)	MIC E. faecium L4001 [1, 6]	MIC E. faecalis ICB 27159 [2, 6]	MIC S. aureus 133 [3, 6]
CC[C@H](C)C1NC(=O)[C@@H](CCCNC(=N)N)NC(=O)[C@H](CC(C)C)NC(=O)[C@H]([C@H](O)C(C)C)NC(=O)[C@@H](NC(=O)[C@H](COCc2ccccc2)NC(=O)[C@H](N)CC(C)(C)C)[C@@H](c2ccccc2)OC(=O)[C@H](CO)NC(=O)[C@H]([C@H](O)C(N)=O)NC(=O)CNC(=O)[C@H]([C@H](C)O)NC1=O.O=C(O)C(F)(F)F.O=C(O)C(F)(F)F (stereo partly drawn) [Example 99, (3-tert-Butyl-D-alanyl-O-benzyl-L-seryl)-de(1-D-leucyl-2-L-leucyl)lysobactin bistrifluoroacetate] (H-[d(tBuAla)]S(Bn)[Phe(3R-OH)][Leu(3R-OH)]L[dR][ξIle][aThr]G[Asn(3S-OH)]S; ester 3-C)	0.063 µg/mL	0.063 µg/mL	0.25 µg/mL	≦0.063 μg/ml				
CC[C@H](C)[C@@H]1NC(=O)[C@@H](CCCNC(=N)N)NC(=O)[C@H](CC(C)C)NC(=O)[C@H]([C@H](O)C(C)C)NC(=O)[C@@H](NC(=O)[C@H](CC(C)(C)C)NC(=O)[C@H](N)CC(C)C)[C@@H](c2ccccc2)OC(=O)[C@H](CO)NC(=O)[C@H]([C@H](O)C(N)=O)NC(=O)CNC(=O)[C@H]([C@H](C)O)NC1=O [Example 3, D-leucyl-N^1-{(3S,6S,12S,15S,18R,21S,24S,27S,-28R)-6-[(1S)-2-amino-1-hydroxy-2-oxoethyl]-18-(3-{[amino(imino)methyl]amino}propyl)-12-[(1S)-1-hydroxyethyl]-3-(hydroxymethyl)-24-[(1R)-1-hydroxy-2-methylpropyl]-21-isobutyl-15-[(1S)-1-methylpropyl]-2,5,8,11,14,17,20,23,26-nonaoxo-28-phenyl-1-oxa-4,7,10,13,16,19,22,25-octaazacyclooctacosan-27-yl}-3-tert-butyl-L-alaninamide bistrifluoroacetate] (H-[dL][tBuAla][Phe(3R-OH)][Leu(3R-OH)]L[dR]I[aThr]G[Asn(3S-OH)]S; ester 3-C)	0.25 µg/mL (≈ 0.194 µM)	0.25 µg/mL (≈ 0.194 µM)	0.125 µg/mL (≈ 0.0969 µM)		0.031 µg/mL (≈ 0.024 µM)			
CC[C@H](C)[C@@H]1NC(=O)[C@@H](CCCNC(=N)N)NC(=O)[C@H](CC(C)C)NC(=O)[C@H]([C@H](O)C(C)C)NC(=O)[C@@H](NC(=O)[C@H](CC(C)C)NC(=O)[C@H](N)Cc2ccccc2F)[C@@H](c2ccccc2)OC(=O)[C@H](CO)NC(=O)[C@H]([C@H](O)C(N)=O)NC(=O)CNC(=O)[C@H]([C@H](C)O)NC1=O [Example 23, (2-Fluoro-D-phenylalanyl)-de(1-D-leucyl)lysobactin bistrifluoroacetate] (H-[dPhe(2-F)]L[Phe(3R-OH)][Leu(3R-OH)]L[dR]I[aThr]G[Asn(3S-OH)]S; ester 3-C)	0.5 µg/mL (≈ 0.376 µM)	1 µg/mL (≈ 0.753 µM)	0.125 µg/mL (≈ 0.0941 µM)		0.125 µg/mL (≈ 0.0941 µM)			
CC[C@H](C)[C@@H]1NC(=O)[C@@H](CCCNC(=N)N)NC(=O)[C@H](CC(C)C)NC(=O)[C@H]([C@H](O)C(C)C)NC(=O)[C@@H](NC(=O)[C@H](CC(C)C)NC(=O)[C@H](N)C[Si](C)(C)C)[C@@H](c2ccccc2)OC(=O)[C@H](CO)NC(=O)[C@H]([C@H](O)C(N)=O)NC(=O)CNC(=O)[C@H]([C@H](C)O)NC1=O [Example 59, 3-(Trimethylsilyl-D-alanyl-de(1-D-leucyl)lysobactin bistrifluoroacetate] (H-[dAla(TMS)]L[Phe(3R-OH)][Leu(3R-OH)]L[dR]I[aThr]G[Asn(3S-OH)]S; ester 3-C)	0.25 µg/mL (≈ 0.191 µM)	0.25 µg/mL (≈ 0.191 µM)	0.125 µg/mL (≈ 0.0957 µM)		<0.063 µg/mL			
CC[C@H](C)[C@@H]1NC(=O)[C@@H](CCCNC(=N)N)NC(=O)[C@H](CC(C)C)NC(=O)[C@H]([C@H](O)C(C)C)NC(=O)[C@@H](NC(=O)[C@H](CC2CC2)NC(=O)[C@H](N)CC(C)C)[C@@H](c2ccccc2)OC(=O)[C@H](CO)NC(=O)[C@H]([C@H](O)C(N)=O)NC(=O)CNC(=O)[C@H]([C@H](C)O)NC1=O.O=C(O)C(F)(F)F.O=C(O)C(F)(F)F [Example 1, D-leucyl-N^1-{(3S,6S,12S,15S,18R,21S,24S,27S,28R)-6-[(1S)-2-amino-1-hydroxy-2-oxoethyl]-18-(3-{[amino(imino)methyl]amino}propyl)-12-[(1S)-1-hydroxyethyl]-3-(hydroxymethyl)-24-[(1R)-1-hydroxy-2-methylpropyl]-21-isobutyl-15-[(1S)-1-methylpropyl]-2,5,8,11,14,17,20,23,26-nonaoxo-28-phenyl-1-oxa-4,7,10,13,16,19,22,25-octaazacyclooctacosan-27-yl}-3-cyclopropyl-L-alaninamide bistrifluoroacetate] (H-[dL][Ala(cPr)][Phe(3R-OH)][Leu(3R-OH)]L[dR]I[aThr]G[Asn(3S-OH)]S; ester 3-C)	0.5 µg/mL	0.5 µg/mL	0.125 µg/mL		0.125 µg/mL			
CC[C@H](C)C1NC(=O)[C@@H](CCCNC(=N)N)NC(=O)[C@H](CC(C)C)NC(=O)[C@H]([C@H](O)C(C)C)NC(=O)[C@@H](NC(=O)[C@H](CC(C)(C)C)NC(=O)C2(N)CCCCC2)[C@@H](c2ccccc2)OC(=O)[C@H](CO)NC(=O)[C@H]([C@H](O)C(N)=O)NC(=O)CNC(=O)[C@H]([C@H](C)O)NC1=O.O=C(O)C(F)(F)F.O=C(O)C(F)(F)F (stereo partly drawn) [Example 105, N-[(1-Aminocyclohexyl)carbonyl]-(3-tert-butyl-D-alanyl)-de(1-D-leucyl-2-L-leucyl)lysobactin bistri-fluoroacetate] (H-[Ac6c][tBuAla][Phe(3R-OH)][Leu(3R-OH)]L[dR][ξIle][aThr]G[Asn(3S-OH)]S; ester 3-C)				0.063 µg/mL		0.5 µg/mL	1 µg/mL	0.5 µg/mL
CC[C@H](C)[C@@H]1NC(=O)[C@@H](CCCNC(=N)N)NC(=O)[C@H](CC(C)C)NC(=O)[C@H]([C@H](O)C(C)C)NC(=O)[C@@H](NC(=O)[C@H](CC(C)C)NC(=O)[C@@H](N)Cc2ccccc2)[C@@H](c2ccccc2)OC(=O)[C@H](CO)NC(=O)[C@H]([C@H](O)C(N)=O)NC(=O)CNC(=O)[C@H]([C@H](C)O)NC1=O [Example 48, L-Phenylalanyl-de(1-D-leucyl)lysobactin bistrifluoroacetate] (H-FL[Phe(3R-OH)][Leu(3R-OH)]L[dR]I[aThr]G[Asn(3S-OH)]S; ester 3-C)	0.25 µg/mL (≈ 0.191 µM)	0.5 µg/mL (≈ 0.382 µM)	0.125 µg/mL (≈ 0.0954 µM)		0.125 µg/mL (≈ 0.0954 µM)			
CC[C@H](C)[C@@H]1NC(=O)[C@@H](CCCNC(=N)N)NC(=O)[C@H](CC(C)C)NC(=O)[C@H]([C@H](O)C(C)C)NC(=O)[C@@H](NC(=O)[C@H](CC(C)C)NC(=O)[C@H](N)COC(C)(C)C)[C@@H](c2ccccc2)OC(=O)[C@H](CO)NC(=O)[C@H]([C@H](O)C(N)=O)NC(=O)CNC(=O)[C@H]([C@H](C)O)NC1=O [Example 47, [O-(tert-Butyl)-D-seryl]-de(1-D-leucyl)lysobactin bistrifluoroacetate] (H-[dS](tBu)L[Phe(3R-OH)][Leu(3R-OH)]L[dR]I[aThr]G[Asn(3S-OH)]S; ester 3-C)	1 µg/mL (≈ 0.765 µM)	2 µg/mL (≈ 1.53 µM)	0.25 µg/mL (≈ 0.191 µM)		0.25 µg/mL (≈ 0.191 µM)			
CC[C@H](C)[C@@H]1NC(=O)[C@@H](CCCNC(=N)N)NC(=O)[C@H](CC(C)C)NC(=O)[C@H]([C@H](O)C(C)C)NC(=O)[C@@H](NC(=O)[C@H](CC(C)C)NC(=O)C2(N)Cc3ccccc3C2)[C@@H](c2ccccc2)OC(=O)[C@H](CO)NC(=O)[C@H]([C@H](O)C(N)=O)NC(=O)CNC(=O)[C@H]([C@H](C)O)NC1=O [Example 18, (2-Amino-2,3-dihydro-1H-indenylcarbonyl)-de(1-D-leucyl)lysobactin bistrifluoroacetate] (H-[Aic]L[Phe(3R-OH)][Leu(3R-OH)]L[dR]I[aThr]G[Asn(3S-OH)]S; ester 3-C)	1 µg/mL (≈ 0.756 µM)	1 µg/mL (≈ 0.756 µM)	1 µg/mL (≈ 0.756 µM)		2 µg/mL (≈ 1.51 µM)			
CC[C@H](C)[C@@H]1NC(=O)[C@@H](CCCNC(=N)N)NC(=O)[C@H](CC(C)C)NC(=O)[C@H]([C@H](O)C(C)C)NC(=O)[C@@H](NC(=O)[C@H](Cc2ccccn2)NC(=O)[C@H](N)CC(C)(C)C)[C@@H](c2ccccc2)OC(=O)[C@H](CO)NC(=O)[C@H]([C@H](O)C(N)=O)NC(=O)CNC(=O)[C@H]([C@H](C)O)NC1=O [Example 97, 3-tert-Butyl-D-alanyl-3-(2-pyridyl)-L-alanyl-de(1-D-leucyl-2-L-leucyl)lysobactin tristrifluoroacetate] (H-[d(tBuAla)][2Pal][Phe(3R-OH)][Leu(3R-OH)]L[dR]I[aThr]G[Asn(3S-OH)]S; ester 3-C)	1 µg/mL (≈ 0.754 µM)	0.5 µg/mL (≈ 0.377 µM)	1 µg/mL (≈ 0.754 µM)		0.125 µg/mL (≈ 0.0943 µM)			
